Reference: a melting point compilation (Tetko et al.; mined from patent text by program, amines drawn as free bases though some values may be those of a salt)

| SMILES | melting point [°C] |
| --- | --- |
| NCC1Cc2cc(Cl)cc(-c3cccnc3)c2O1 (stereo not drawn) | > 250 |
| COC(=O)C1(CCCN2CCN(c3ccccc3)CC2)Sc2ccccc2CCC1O (stereo not drawn) | 152 to 154 |
| CN1CC(C(=O)N(C)Cc2ccc(C(F)(F)F)cc2)=C(O)C1=O | 126 to 128 |
| O=C1c2ccccc2C(=O)N1CCN1CCCC1c1cccc(O)c1 (stereo not drawn) | 172 to 175 |
| O=C(NCCC12CC3CC(CC(C3)C1)C2)c1cc(-c2ccccc2C(=O)O)ccc1Cl | 114 to 117 |
| Oc1cc(N2CCCCC2)c(Cl)cc1CCBr | 115 to 116 |
| Oc1ccc(-c2ncc3ncc(-c4cccs4)cc3n2)cc1 | 240 to 242 |
| CN1CCC(N(C)S(=O)(=O)c2ccc(Nc3nccc(Nc4ccc(F)c(F)c4)n3)cc2)CC1 | 181 to 183 |
| OC1(Cc2ccccc2)CCN(CCC(c2ccccc2)(c2ccccc2)c2ccccc2)CC1 | 72 to 74 |
| COc1ccc(C(=O)C2=C(O)C(=O)N(c3nnc(C(C)C)s3)C2c2ccc(C(C)(C)C)cc2)cc1 (stereo not drawn) | 257 |
| O=C1N=C(N2CCOCC2)SC1c1cncc(-c2cc(F)c(O)c(C34CC5CC(CC(C5)C3)C4)c2)c1 (stereo not drawn) | 310 to 317 |
| Cc1cccc(NC(=O)NCC(=O)N(c2ccccc2)C(C(=O)OC(C)(C)C)C(=O)OC(C)(C)C)c1 | 175 |
| O=P1(O)OCc2ccccc21 | 167 |
| CC(C)(C)NC(=O)N1Cc2c(-c3ccc(F)cc3)ncn2-c2ccccc21 | 241 to 244 |
| O=[N+]([O-])c1ccc(N2CCN(CCCN3c4cccc5cccc(c45)S3(=O)=O)CC2)cc1 | 186 |
| O=C(C=Cc1cccnc1)c1ccccc1OCc1ccccc1 | 117 to 119 |
| O=[N+]([O-])c1ccc(N2C[C@@H]3C[C@H]2CS3)cc1F | 97 to 98 |
| C=CCc1c(-c2ccc(S(C)(=O)=O)cc2)cnn(CC(F)(F)F)c1=O | 192 to 195 |
| CN(Cc1ccccc1)c1ccc(C(=O)c2ccccc2)cc1[N+](=O)[O-] | 99.5 |
| CC(C)Oc1c(F)cc2c(O)c(C(=O)NCc3ccc(Cl)cc3)cnc2c1F | 207 to 209 |
| Cc1ccc(C(=C/C=C/C(=O)O)c2ccc(C)cc2)cc1 | 224 to 226 |
| Cc1cc(N2CCNCC2)ccn1 | 93 to 94 |
| O=C1c2cc(I)ccc2-n2c1nc1ccccc1c2=O | 296 to 297 |
| CC(C)(C)NC(=O)N1CCN(Cc2ccccc2)C[C@@H]1C(=O)N(CCCn1ccnc1)Cc1ccccc1 | 57.8 |
| CCOc1ccc(C2=NN(C3CCN(S(C)(=O)=O)CC3)C(=O)[C@@H]3CC=CC[C@H]23)cc1OCC | 99 to 102 |

| SMILES | melting point [°C] |
| --- | --- |
| COc1cc(Cl)cc2c1OC(COS(=O)(=O)c1ccc(C)cc1)C2 (stereo not drawn) | 99 to 102 |
| CC(C)Cn1c(=O)n(C)c(=O)c2c(Sc3ccc(N)cc3)c(Cc3cccc4ccccc34)sc21 | 177 to 178 |
| O=C([C@@H](Cc1ccc(Cl)cc1)NC1CCCCC1)N1CCC(Cn2cncn2)(C2CCCCC2)CC1 | 60 |
| Cc1ccc(C(=O)c2ccccc2F)cc1 | 73 to 74 |
| O=C(NCCO)c1c([N+](=O)[O-])cccc1S(=O)(=O)NCCO | 176 to 178 |
| Nc1ccc(-c2ccccc2)cc1[N+](=O)[O-] | 163 to 165 |
| CC(C)(C)c1nc2cc(N3CCCC3)c(N=C=S)cc2s1 | 89 to 90 |
| COc1nc(NC(=O)NS(=O)(=O)c2ccccc2C(=O)OC(C)C)nc(C(F)(F)F)n1 | 182 to 185 |
| O=C1O[C@@H](c2ccccc2)N(C(=O)OCc2ccccc2)[C@H]1Cc1ccccc1 | 120 to 122 |
| CC(=O)c1cc2c(c(C=O)c1O)CCCC2 | 77.5 to 78.5 |
| CCCCCNC(=O)[C@H](Cc1ccc(N(CC(=O)O)CC(=O)O)cc1)NC(=O)[C@H](Cc1ccccc1)NC(=O)OC(C)(C)C | 151 to 152 |
| COc1ccccc1C(=O)c1ncccc1C | 98 to 100 |
| CC(=O)OCc1cc2c(Cl)ccc(-n3c(=O)cc(C(F)(F)F)n(C)c3=O)c2o1 | 135 to 138 |
| Nc1sc(CC(=O)O)cc1C(=O)c1ccccc1Cl | 172 to 182 |
| COc1cc(C2C3=C(CNC3=O)Nc3cc4c(cc32)OCO4)cc(OC)c1OC (stereo not drawn) | 244 |
| COc1ccc2c(c1)C(=O)C(CC=O)C2 (racemic) | 59 |
| Fc1ccc2c(C3=CCN(CC4CCc5ccccc5O4)CC3)c[nH]c2c1 (stereo not drawn) | 160 to 161 |
| O=C(Nc1ccc2[nH]cc(C3CCNCC3)c2c1)c1ccc(F)cc1 | 229 to 230 |
| CN1CC2c3cccn3Cc3ccc(Cl)cc3N2C(=O)C1=O (stereo not drawn) | 203 |
| Cc1nc2c3c(c(C(=O)N(C)C)cc2n1C)CC[C@@H](c1ccccc1)O3 | 227 to 228 |
| COC(=O)c1sccc1NC(C)=O | 93 to 95 |
| CCCC1CC2=CC(=O)CCC2C2CCC3(C)C(OC(C)=O)CCC3C12 (stereo not drawn) | 97 to 100 |
| CC(C)(NC(=O)C(CO)NC(=O)c1ccccc1)c1ccccc1 (stereo not drawn) | 152 to 153 |
| CC1(C)C(C=C2C(C(F)(F)F)C2(F)F)C1C(=O)O (stereo not drawn) | 45.7 |
| CC(=O)c1cc(CO)c(O)cc1O | 151 to 152 |

| SMILES | melting point [°C] |
| --- | --- |
| O=C1CC(c2ccc(O)cc2)=Nc2ccc(N3CCOCC3)cc21 | 340 to 342 |
| Cc1oc(-c2ccccc2)nc1CCOc1ccc(N)cn1 | 107 to 108 |
| CCCCn1c(Cc2cc(OC)ccc2Cl)nc2c(N)ncnc21 | 138 to 139 |
| COCCOC(=O)COc1ccc(C(=O)[C@H](COC(C)(C)C)NC(=O)c2ccc(C(=N)NC(=O)OC(C)(C)C)cc2)cc1 | 174 |
| Cc1ccc(-c2cc(F)c(F)cc2-c2ccc(S(N)(=O)=O)cc2)cc1C | 133 to 134 |
| CC(C)[Si]1(C(C)C)C([Si](C)(C)C)=C(c2ccccc2)C(c2ccccc2)=C1[Si](C)(C)C | 107 |
| O=C(CO)NCCCCCCCCCCCCNC(=O)CO | 94 to 97 |
| CN1CCN(c2ccc(N)cc2F)CC1 | 89 to 91 |
| CN(C)Cc1cccc(-c2cc(C(N)=O)ccc2C(N)=O)c1 | 162 to 165 |
| Cc1nnc2n1-c1ccccc1C(c1ccc(Cl)cc1)=NN2Cc1ccc(NS(C)(=O)=O)cc1 | 273 to 275 |
| CCOC(=O)C(=O)Nc1sc(-c2ccccc2)cc1[N+](=O)[O-] | 139 to 144 |
| Nc1nc(N)nc(C2CCC(c3nc(N)nc(N)n3)CC2)n1 (stereo not drawn) | 317 to 321 |
| CCOC(=O)c1cc2cc(OCCOC)cc(N)c2[nH]1 | 162 to 163 |
| NC(=O)c1ccc(CN2CCN(C(=O)c3cc(C(F)(F)F)cc(C(F)(F)F)c3)[C@H](Cc3c[nH]c4ccccc34)C2)cc1 | 120 to 126 |
| CCOC(=O)c1sc(SC(C)C)c2c1CCC(Br)C2=O (stereo not drawn) | 107 to 108 |
| O=C(CCN1C(=O)c2ccccc2C1=O)c1ccc(Cl)cc1C(=O)c1ccccc1 | 163 to 164 |
| COC(=O)C=Cc1cnc(Cl)cc1NCc1ccc(OC)c(Cl)c1 | 170 to 171 |
| C=C1C(O)CC(OC(C)=O)C2(C)C1CC1(C(C)(C)O)CC(O)C(C)=C1C(OC(=O)c1ccccc1)C2OC(C)=O (stereo not drawn) | 200 to 201 |
| COc1cc(Cc2cnc(NCCSCc3cc(CN(C)C)ccn3)[nH]c2=O)ccn1 | 65 to 74 |
| CCCCCCCCCCCCC1C=CC(Oc2ccc(C(=O)O)o2)=C2N=C3CCCCC3=C21 (stereo not drawn) | 110 to 112 |
| O=C(c1ccc(Cc2ccc(F)cc2)o1)c1occ(Br)c(=O)c1O | 191 to 192 |
| CN(C(=O)C(F)(F)F)C1(C)CN(c2cc3c(cc2F)c(=O)c(C(=O)O)cn3C2CC2)C1 | 210 to 215 |
| O=c1[nH]c2ncc(-c3ccc(-c4nc[nH]n4)cc3)nc2n1CCC1CCOCC1 | 263 to 266 |
| Cn1c(S(=O)(=O)CCCl)nnc1S(=O)(=O)CCCl | 156 |
| CSc1nn2c(N(C)C)cc(C)nc2c1S(=O)(=O)c1ccc2ccccc2c1 | > 230 |

| SMILES | melting point [°C] |
| --- | --- |
| CC(=O)OC(c1ccc(C(F)(F)F)cc1[N+](=O)[O-])c1cnoc1C1CC1 (stereo not drawn) | 82 |
| Cc1sc(-c2ccccc2)nc1COc1ccc(CO)cc1 | 94 to 95 |
| N#Cc1c(-c2ccc(Cl)cc2)[nH]c(Br)c1Cl | 262 to 263 |
| CCCCN(C)CCc1ccc(Nc2ncc3c(n2)-c2ccccc2[C@H](c2ccc(F)cc2)C3)cc1 | 164 to 166 |
| CC(=O)NCC1CC1c1c(C#N)ccc2nn(C)cc12 (stereo not drawn) | 189 to 192 |
| COc1ccc(C(=C(c2ccccc2)C(F)(F)F)c2ccc(F)cc2)cc1 | 52 to 56 |
| Cc1ccccc1NC(=O)c1ccc(-n2nc(C3CC3)cc2C2CC2)nc1 | 123 to 126 |
| c1ccc(OCCSCc2nnc(-c3ccc(OCCN4CCOCC4)cc3)o2)cc1 | 70 to 72 |
| O=C(O)CCNc1ccc(-c2ccc3nnn(Cc4ccc5ncccc5c4)c3n2)cc1F | 132 to 135 |
| CN1Cc2c(-c3nnc(CCl)o3)ncn2-c2cccc(Cl)c2C1=O | 201 to 203 |
| CCC(CO)Nc1c(-c2c(F)cc(F)cc2F)c(Cl)nc2ncnn12 (stereo not drawn) | 76 to 77 |
| C=C1CCC23OC2(C1)CC(C)C1C2CCC(O)C2(C)CCC13 (stereo not drawn) | 125 |
| Cn1c(=O)oc2cc([N+](=O)[O-])ccc21 | 183 to 185 |
| CN1CCCCC1CCc1ccccc1NC(=O)c1ccc(N)cc1 (stereo not drawn) | 147 to 148 |
| COc1ccc2cnc(Nc3ccc(F)c(C)c3)nc2c1C1CCCC1 | 208 to 209 |
| Cc1nnc2n1-c1sc(C#CCn3c(=O)c4c(ncn4C)n(C)c3=O)cc1C(c1ccccc1Cl)=NC2 | 277 to 280 |
| O=C(Nc1ccc(OCCN2CCOCC2)c2ccccc12)c1cc(F)cc(OC2CCCC2)c1 | 117 to 119 |
| O=C1CCCCCCCCCCCCCCCCCCCCCC(O)C(=O)OCCCC1 (stereo not drawn) | 67 to 68 |
| COc1cc(C=O)c([N+](=O)[O-])cc1OCCCCCCOC(C)=O | 79.8 to 81.5 |
| C[C@@H]1C(=O)N(C(=O)N2CCOCC2)Cc2ccccc2[C@@H]1C (relative stereo) | 184 to 185 |
| CC1(C)CC(NS(C)(=O)=O)c2ccccc21 (stereo not drawn) | 117 to 119 |
| CCC1(CC)CC(=O)c2ccc(O)cc2O1 | 97 to 99 |
| O=C1Nc2ccccc2/C1=C/c1c[nH]c2ncccc12 | > 280 |
